Measured values as given in patent publication US20220160669A1, “PARENTERAL NUTRITION FORMULATION” (BAXTER INTERNATIONAL INC., priority 2020, published 2022).
“Also recorded” adds a separate entry of the source.

Experiments:
[1] = tested on: Neonatal Yorkshire/Landrace cross bred piglets; test: Duodenal mucosal resistance (Ussing chamber), PN-fed neonatal piglets; type: in vivo, pig; set-up: key to Duodenal Mucosal Resistance (Ussing chamber): +++ indicate P < 0.01; ++ indicates P < 0.05; + indicates positive trends; = denotes no significant P value; − denotes negative trends; key to Duodenal mucosal resistance, Grouping (Fisher's LSD test): Groups that do not share a letter are significantly different; ab: Groups that do not share a letter are significantly different; b: Groups that do not share a letter are significantly different; settings: for Mean duodenal mucosal resistance: N 12; for Duodenal mucosal resistance, Grouping (Fisher's LSD test): PN group a, EN group b; for Duodenal Mucosal Resistance (Ussing chamber): compared to standard PN (s-PN)
Description: It is known also that there is a relationship between intestinal epithelial integrity and intestinal health (Thomson et al., The Ussing chamber system for measuring intestinal permeability in health and disease, BMC Gastroenterology 2019; 19:98). Impairment of barrier function has been linked to intestinal diseases such as, for example, ulcerative colitis and Crohn's disease. The so-called Ussing system offers an ex vivo measurement of the permeability or duodenal mucosal resistance. The system allows to measure said duodenal mucosal (transepithelial) resistance (TER), which can be determined to give an overall measurement of gut integrity. A low TER value is indicative of increased permeability. Prior studies have shown that decreased TER under inflammatory conditions was associated with down regulation of “sealing” tight junctional proteins. Accordingly, determining epithelial integrity by means of the Ussing chamber constituted one option to assess the influence of various nutritional options (e.g. EN vs PN) and various PN compositions (see Example 3.5) on gut health and specifically on local inflammatory incidents.
(§1) Neonatal Yorkshire/Landrace cross bred piglets (n=72; six at a time from the same litter, repeating 12 times) were obtained from Oak Hill Genetics (Ewing, Ill.) after 48-hour sow reared for colostrum consumption and iron supplementation.
Duodenal mucosal resistance was determined according to known methods and according to Tappenden et al., Short-Chain Fatty Acid-Supplemented Total Parenteral Nutrition Enhances Functional Adaptation to Intestinal Resection in Rats. Gastroenterology 1997; 112:792-802. Pieces of intestine (1 cm^2) were cut out, and the tissue was mounted as flat sheets in incubation chambers containing oxygenated Krebs' bicarbonate buffer (pH 7.4) at 37° C. Tissue discs were preincubated in this buffer for 15 minutes to allow equilibration at this temperature. After preincubation, the chambers were transferred to other beakers containing [^3H]inulin and various 14C probe molecules in oxygenated Krebs' bicarbonate (pH 7.4 and 37° C.). The concentration of solutes was 4, 8, 16, 32, or 64 mmol/L for D-glucose and 16 mmol/L for L-glucose. The preincubation and incubation solutions were mixed at identical stirring rates with circular magnetic bars, and the stirring rates were adjusted by means of a strobe light. A stirring rate of 600 rpm was selected to achieve low effective resistance of the intestinal unstirred water. The experiment was terminated by removing the chambers and quickly rinsing the tissue in cold saline for approximately 5 seconds. The exposed mucosal tissue was then cut out of the chamber with a circular steel punch. For all probes, the tissue was dried overnight in an oven at 55° C. The dry weight of the tissue was determined, the sample was saponified with 0.75N NaOH, scintillation fluid was added (Beckman Ready Solv HP; Beckman, Mississauga, ON), and radioactivity was determined by means of […] an external standardization technique to correct for variable quenching of the two isotopes. The mucosal weight was determined after scraping of the intestine from adjacent samples not used for uptake studies. The weight of the mucosa in the samples used to measure uptake was determined by multiplying the dry weight of the intestinal sample by the percentage of the intestinal wall comprised of mucosa.

[2] = tested on: Pro-inflammatory cytokines; test: Pro-inflammatory cytokines, summary (site not stated); type: in vivo, pig; set-up: key: + denotes a positive effect (compared to standard PN); ++ a very positive effect; − denotes no difference; settings: compared to standard PN
Description: as §1
(§2) The influence of the respective supplements on inflammation was investigated by determining Il-6, Il-1beta, TNF-alpha and Il-10 serum levels in the intervention groups compared to EN and PN according to Milo et al., Effects of Short-Chain Fatty Acid-Supplemented Total Parenteral Nutrition on Intestinal Pro-Inflammatory Cytokine Abundance. Digestive Diseases and Sciences 2002; 47:2049-2055. Jejunal and ileal samples were homogenized in double-distilled water, and the Bradford protein assay (Biorad, Hercules, Calif., USA) was performed on homogenate and plasma samples. Protein (30 μg) from each sample was denatured by boiling, and proteins were separated by size using 12.5% sodium dodecyl sulfate polyacrylamide gel electrophoresis. Separated proteins were transferred to polyvinylidene difluoride membranes (Biorad) using a semidry transfer apparatus (Biorad). Western blot analysis for TNF-alpha, IL-1beta, Il-10 and IL-6 was performed using porcine-specific polyclonal antibodies (Endogen, Woburn, Mass., USA). A mouse anti-pig monoclonal TNF-alpha antibody was used to detect TNF-alpha ([…]). Rabbit anti-pig polyclonal antibodies specific for IL-1beta and IL-6 were used to detect IL-1beta (17,500 kDa), Il-10 (18,600 kDa) and IL-6 (26,000 kDa). Membranes were developed using the Opti-4CN kit (Biorad) and photographed using the FOTO/Analyst Image Analysis System (Fotodyne, Inc., Hartland, Wis., USA). Densitometry of TNF-alpha, IL-1beta, IL-6, and Il-10 was performed using Collage Image Analysis Software 4.0 (Fotodyne, Inc.). Results are shown in FIG. 15 (Il-6), FIG. 16 (Illbeta), FIG. 17 (TNF-alpha) and FIG. 18 (Il-10).

[3] = tested on: Anti-inflammatory cytokines; test: Anti-inflammatory cytokines, summary (site not stated); type: in vivo, pig; set-up: key: + denotes a positive effect (compared to standard PN); ++ a very positive effect; − denotes no difference; settings: compared to standard PN
Description: as §1, §2

[4] = tested on: sIgA; test: IgA quantification (jejunal sIgA, ELISA); type: in vivo, pig; set-up: key to IgA: + denotes a positive effect (compared to standard PN); ++ a very positive effect; − denotes no difference; settings: for IgA: compared to standard PN; for Jejunal sIgA Concentration: compared to standard PN (s-PN)
Description: as §1
Small intestine probes for IgA level determination were obtained by flushing the small intestine with chilled HBSS (Hank's Balanced Salt Solution). Nasal and bronchoalveolar washings for measurement of respiratory tract IgA levels were obtained by lavage with 1 mL phosphate-buffered saline solution under anesthesia. The washings were stored in a −80° C. freezer until IgA analysis. IgA was measured in small intestinal and respiratory tract washings by sandwich enzyme-linked immunosorbent assay using a polyclonal goat anti-mouse IgA (Sigma) to coat the plate, a purified mouse IgA (Zymed Laboratories, San Francisco, Calif.) as the standard, and a horseradish peroxidase-conjugated goat anti-mouse IgA (Sigma).

[5] = tested on: Neonatal Yorkshire/Landrace cross bred piglets; test: Duodenal mucosal resistance (Ussing chamber), PN-fed neonatal piglets; type: in vivo, pig; set-up: key: + denotes a positive effect (compared to standard PN); ++ a very positive effect; − denotes no difference; settings: 10 days, compared to standard PN
[6] = Stability of butyrate derivative compositions (sterilization, shelf-life); settings: for free butyric acid released during the sterilization of the bags: lipid chamber, GC-FID

Row | Compound | Mean duodenal mucosal resistance ([1]; 10 mmol/L TPN (Groups A, C, D)) | Duodenal mucosal resistance, Grouping (Fisher's LSD test) ([1]; 10 mmol/L TPN (Groups A, C, D)) | Pro-inflammatory cytokines ([2]; 10 mmol/L in PN) | Anti-inflammatory cytokines ([3]; 10 mmol/L in PN) | IgA ([4]; 10 mmol/L in PN) | Tight junctions ([5]; 10 mmol/L in PN) | free butyric acid released during the sterilization of the bags [6] | duodenal mucosal resistance, in words ([1]; 10 mmol/L TPN (Groups A, C, D)) | Duodenal Mucosal Resistance (Ussing chamber) ([1]; 10 mmol/L) | Jejunal sIgA Concentration ([4]; 10 mmol/L) | also measured
1 | CCCCCCCCCCCCCCCC(=O)OCC(COC(=O)CCC)OC(=O)CCCCCCCCCCCCCCC (stereo not drawn) [1,2-Dipalmitoyl 3-butyryl glycerol] | 15.8264 | ab | + | + | ++ | − | only very limited amounts |  |  |  | duodenal mucosal resistance, in words ([1]; 10 mmol/L TPN (Groups A, C, D), listed as D): significantly different from the PN; also recorded: almost as good as in Group E
2 | CCCC(=O)OCC(COC(=O)CCC)OC(=O)CCC [Tributyrin] | 21.8442 | ab | − | − | ++ | − | only very limited amounts | significantly different from the PN | = | ++^5 (++ indicates P < 0.05) | duodenal mucosal resistance, in words ([1]; 30 mmol/L TPN (Group B)): significantly different from the PN; Mean duodenal mucosal resistance ([1]; 30 mmol/L TPN (Group B)): 16.0234; Duodenal mucosal resistance, Grouping (Fisher's LSD test) ([1]; 30 mmol/L TPN (Group B)): ab; Duodenal Mucosal Resistance (Ussing chamber) ([1]; 30 mmol/L): =; Pro-inflammatory cytokines ([2]; 30 mmol/L in PN): +; Anti-inflammatory cytokines ([3]; 30 mmol/L in PN): +; IgA ([4]; 30 mmol/L in PN): ++; Jejunal sIgA Concentration ([4]; 30 mmol/L): ++^5 (++ indicates P < 0.05); Tight junctions ([5]; 30 mmol/L in PN): −
3 | L-arginine, butanoate (3:4) [Arginine butyrate] | 8.2593 | b | ++ | ++ |  | ++ |  | significantly lower loss of mucosal resistance compared to the other intervention groups | ++^2 (++ indicates P < 0.05) | +++^3 (+++ indicate P < 0.01) | duodenal mucosal resistance, in words ([1]; 10 mmol/L TPN (Groups A, C, D), listed as C): significantly different from the PN; stable shelf-life ([6]; 25° C. and 40% relative humidity (RH), in an amino acid formulation): at least 12 months; stability during production and sterilization ([6]; amino acid chamber / amino acid formulation): stable during production, sterilization; concentration at which aqueous composition is producible and stable ([6]; aqueous arginine butyrate composition): up to 5500 mg/L
